US12692253B2, “Antimicrobial compounds and methods” (Curza Global, LLC, priority 2019, dated 2026)

Legend:
[1] = system: E. coli S30 extract (bacterial protein synthesis); assay: E. coli S30 extract coupled transcription-translation luciferase assay (inhibition of bacterial protein synthesis); assay type: biochemical; settings: class by IC50 or % inhibition @ 1 μM, read-out: S30 IC50 (μM/% inhib.)
Procedure: E. coli S30 extract: Inhibition of bacterial protein synthesis was determined using the E. coli S30 Extract System for Circular DNA (Promega catalog #L-2010) and Luciferase Assay Reagent (Promega catalog #E1500) with slight modifications to a published protocol. Fyfe, C., Sutcliffe, J. A. and Grossman, T. H. (2012) “Development and characterization of a Pseudomonas aeruginosa in vitro coupled transcription-translation assay system for evaluation of translation inhibitors” J. Microbiol. Methods 90(3), 256-261.
Compounds were serial diluted in 0.5 mL microcentrifuge tubes by mixing and transferring 50 μL from the highest concentration to 50 μL of water, mixing and transferring 50 μL of this 2-fold dilution to 50 μL of water. This mixing and transferring was repeated so that there are a total of 8 tubes with serial dilutions of compound at 10× the desired screening concentration that are ultimately diluted to 1× by the addition of S30 luciferase synthesis mixture. Serial dilutions of compounds were added (2 μL) to wells in a black round bottom 96-well plate. Water (2 μL) was used as a “no inhibitor” control in 4 wells/plate. No DNA control reaction mixture (20 μL; see below) was used as a control in 4 wells/plate for background luminescence. S30 luciferase synthesis mixture (18 μL; see below) was added to wells with compounds or water mixture and incubated at 37° C. for 1 hour. Reactions were stopped by transferring to 4° C. refrigerator for 5 minutes then 25 μL of luciferase activity mix was added. Luminescence was measured using a BioTek Synergy HTX plate reader. % Inhibition was determined relative to no inhibitor controls. • S30 luciferase synthesis mixture: • 445 μL S30 extract, circular • 712 μL S30 Premix without amino acids • 4.45 μL pBESTluc™ DNA (1 μg/μL) • 78 μL complete amino acid mixture • 267 μL water • No DNA control: • 20 μL S30 extract, circular • 32 μL S30 Premix without amino acids • 7 μL complete amino acid mixture • 21 μL water Rabbit Reticulocyte lysate

[2] = target: Rabbit Reticulocyte Lysate (eukaryotic protein synthesis); assay: Rabbit reticulocyte lysate luciferase assay (inhibition of eukaryotic protein synthesis); assay type: biochemical; settings: class by IC50 or % inhibition @ 1 μM, read-out: Rabbit reticulocyte IC50 (μM/% inhib.)
Procedure: Inhibition of eukaryotic protein synthesis was determined using the Rabbit Reticulocyte Lysate System, Nuclease-Treated from Promega (catalog #L-4960) with slight modifications to the manufacturer's protocol. Compounds were serial diluted in 0.5 mL microcentrifuge tubes by mixing and transferring 50 μL from the highest concentration to 50 μL of water, mixing and transferring 50 μL of this 2-fold dilution to 50 μL of water. This mixing and transferring was repeated so that there are a total of 8 tubes with serial dilutions of compound at 10× the desired screening concentration that are ultimately diluted to 1× by the addition of rabbit reticulocyte luciferase synthesis mixture. Serial dilutions of compounds were added (2.5 μL) to wells in a black round bottom 96-well plate. Water (2.5 μL) was used as a “no inhibitor” control in 4 wells/plate. No RNA control reaction mixture (2 μL; see below) was used as a control in 4 wells/plate for background luminescence. Rabbit reticulocyte luciferase synthesis mixture (22.5 μL; see below) was added to wells with compounds or water mixture and incubated at 30° C. for 90 minutes. Luciferase assay reagent (25 μL) was added with luminescence measured using a BioTek Synergy HTX plate reader. % Inhibition was determined relative to no inhibitor controls.
Rabbit Reticulocyte Luciferase Synthesis Mixture:
• 1,000 μL rabbit reticulocyte lysate • 5.7 μL Luciferase Control RNA (1 μg/μL) • 26 μL complete amino acid mixture • 395 μL water • No RNA Control • 70 μL rabbit reticulocyte lysate • 2 μL complete amino acid mixture • 28 μL water Minimum Inhibitory Concentration (MIC)

A. baumannn (Ab) = assay: Broth microdilution minimum inhibitory concentration (MIC), CLSI; assay type: cell-based; settings: Acinetobacter baumannii, read-out: Ab + bicarb MIC
Procedure: (§1) A certified BSL-2 laboratory was used for testing. Compounds were evaluated using the broth microdilution minimum inhibitory concentration (MIC) and minimum bactericidal concentration (MBC) assays defined by Clinical and Laboratory Standards Institute (CLSI) in the M26-A guideline against S. aureus (Sa), E. coli (Ec), K. pneumoniae (Kp), A. baumannn (Ab), E. faecalis (Ef) and P. aeruginosa (Pa).
(§2) MICs were determined using the Clinical Laboratory and Standards Institute (CLSI) Broth Microdilution Method with slight modification. Clinical and Laboratory Standards Institute (2012). “Methods for dilution antimicrobial susceptibility tests for bacteria that grow aerobically; approved standard, 9th ed. M07-A9 Clinical and Laboratory Standards Institute, Wayne, PA” Serial two-fold dilutions of compounds are prepared in sterile clear round-bottom 96-well plates.
(§3) To prepare microdilution trays, two-fold dilutions of antimicrobial agent are prepared in growth medium: Cation-Adjusted Mueller-Hinton Broth (CAMHB), or CAMHB supplemented with sodium bicarbonate (6.25 or 25 mM final concentration prepared from a 1.0M stock solution) or CAMHB supplemented with heat inactivated human serum (Fisher Cat. #BP2657100) 0-50% by adding 200 µL of the highest concentration to be tested (64 μg/mL, for example) in row A, mixing and transferring 100 μL from row A to 100 μL growth medium in row B, then repeating the mixing and transferring through row H of the 96-well plate, discarding the excess […] remaining. This slight modification to the CLSI protocol enables evaluation of MICs for 3 compounds per plate in triplicate, albeit with only 8 compound dilutions (CLSI protocol enables 2 compounds in triplicate with 10 dilutions). Bacterial suspensions are added to a final concentration of 5×10^4 CFU/well by adding 5 μL of a 1:10 dilution of a 0.5 McFarland suspension (1×10^8 CFU/mL) for each bacterium evaluated. Bacterial suspensions were prepared using the growth method described by CLSI. Well-isolated colonies (3-5 from an agar plate) were selected using a sterile loop and used to inoculate a tube containing 4 mL of CAMHB. The cultures are incubated at 35±2° C. until it achieves or exceeds the turbidity of the 0.5 McFarland standard, determined by measuring A600 (usually two to six hours). When growth exceeds a 0.5 McFarland standard, the turbidity is adjusted with broth to be equivalent to a 0.5 McFarland standard.

E. coli (Ec) = assay: as above; assay type: cell-based; settings: Escherichia coli, growth medium supplemented with sodium bicarbonate, read-out: E. coli + bicarb MIC
Procedure: as §1, §2, §3

E. faecalis (Ef) = assay: as above; assay type: cell-based; settings: Enterococcus faecalis, growth medium supplemented with sodium bicarbonate, read-out: Ef + bicarb MIC
Procedure: as §1, §2, §3

P. aeruginosa (Pa) = assay: as above; assay type: cell-based; settings: Pseudomonas aeruginosa, growth medium supplemented with sodium bicarbonate, read-out: Pa MIC + bicarb
Procedure: as §1, §2, §3

S. aureus (Sa) = assay: as above; assay type: cell-based; settings: Staphylococcus aureus, growth medium supplemented with sodium bicarbonate, read-out: Sa + bicarb MIC
Procedure: as §1, §2, §3

SMILES | IC50 [1] | IC50 [2] | MIC (A. baumannn (Ab)) | MIC (E. coli (Ec)) | MIC (E. faecalis (Ef)) | MIC (P. aeruginosa (Pa)) | MIC (S. aureus (Sa))
CC(C)(N)C(=O)N1CCN(C(=O)Nc2ccn(-c3ccc(CN4C[C@@H]5[C@@H](N)[C@@H]5C4)cc3)c(=O)n2)CC1 [Compound 3] | < 0.5 µM | ≥ 1 µM | < 8 mg/L | < 8 mg/L | < 8 mg/L | 8 to 32 mg/L | < 8 mg/L
C[C@](N)(CO)C(=O)N1CCN(C(=O)Nc2ccn(-c3ccc(CN4C[C@@H]5[C@@H](N)[C@@H]5C4)cc3)c(=O)n2)CC1 [Compound 4] | < 0.5 µM | ≥ 1 µM | > 32 mg/L | < 8 mg/L | < 8 mg/L | > 32 mg/L | 
CC(C)(N)C(=O)N1CCN(C(=O)Nc2ccn(-c3ccc(CN4CCC5(N)CC5C4)cc3)c(=O)n2)CC1 (stereo not drawn) [Compound 13] | 0.5 to 1 µM | ≥ 1 µM | > 32 mg/L | < 8 mg/L | < 8 mg/L | > 32 mg/L | < 8 mg/L
CC(C)(N)C(=O)N1CCN(C(=O)Nc2ccn(-c3ccc(CN4C[C@@H]5[C@H](N)[C@@H]5C4)cc3)c(=O)n2)CC1 [Compound 14] | < 0.5 µM | ≥ 1 µM | > 32 mg/L | < 8 mg/L | < 8 mg/L | > 32 mg/L | < 8 mg/L
C[C@H]1CN(C(=O)C(C)(C)N)CCN1C(=O)Nc1ccn(-c2ccc(CN3C[C@@H]4[C@@H](N)[C@@H]4C3)cc2)c(=O)n1 [Compound 17] | < 0.5 µM | ≥ 1 µM |  | < 8 mg/L |  | > 32 mg/L | 
CC(C)(N)C(=O)N1CCN(C(=O)Nc2ccn(-c3ccc(CN4C[C@@H]5[C@@H](N)[C@@H]5C4)cc3)c(=O)n2)C(c2ccccc2)C1 (stereo partly drawn) [Compound 27] | < 0.5 µM | ≥ 1 µM |  | < 8 mg/L |  | > 32 mg/L | 8 to 32 mg/L
C[C@@H]1CN(C(=O)Nc2ccn(-c3ccc(CN4C[C@@H]5[C@@H](N)[C@@H]5C4)cc3)c(=O)n2)CCN1C(=O)C(C)(C)N [Compound 31] | < 0.5 µM | ≥ 1 µM |  | < 8 mg/L |  | > 32 mg/L | 
C[C@@H]1CN(C(=O)[C@@](C)(N)CO)CCN1C(=O)Nc1ccn(-c2ccc(CN3C[C@@H]4[C@@H](N)[C@@H]4C3)cc2)c(=O)n1 [Compound 35] | < 0.5 µM | ≥ 1 µM | > 32 mg/L |  | 8 to 32 mg/L |  | 
C[C@](N)(CO)C(=O)N1CCN(C(=O)Nc2ccn(-c3ccc(CN4CC5(CC(N)C5)C4)cc3)c(=O)n2)CC1 [Compound 36] | < 0.5 µM | ≥ 1 µM | > 32 mg/L | < 8 mg/L | > 32 mg/L | > 32 mg/L | 
C[C@](N)(CO)C(=O)N1CCN(C(=O)Nc2ccn(-c3ccc(CN4CCC5(CC4)CC(N)C5)cc3)c(=O)n2)CC1 [Compound 37] | < 0.5 µM | ≥ 1 µM |  | < 8 mg/L |  | 8 to 32 mg/L | 
CC(C)(N)C(=O)N1CCN(C(=O)Nc2ccn(-c3ccc(CN4CCC5(CCC5N)CC4)cc3)c(=O)n2)CC1 (stereo not drawn) [Compound 38] | < 0.5 µM | ≥ 1 µM | > 32 mg/L |  | 8 to 32 mg/L |  | 
CC(C)(N)C(=O)N1CCN(C(=O)Nc2ccn(-c3ccc(CN4CC5(CNC5)C4)cc3)c(=O)n2)CC1 [Compound 46] | < 0.5 µM | ≥ 1 µM |  | < 8 mg/L | > 32 mg/L | > 32 mg/L | 8 to 32 mg/L
CC(C)(N)C(=O)N1CCN(C(=O)Nc2ccn(-c3ccc(CN4CC5(CCNCC5)C4)cc3)c(=O)n2)CC1 [Compound 81] | < 0.5 µM | ≥ 1 µM | > 32 mg/L | < 8 mg/L |  | > 32 mg/L | 8 to 32 mg/L
C[C@](N)(CO)C(=O)N1CCN(C(=O)Nc2ccn(-c3cccc(CCN4C[C@@H]5[C@@H](N)[C@@H]5C4)c3)c(=O)n2)CC1 [Compound 89] | ≥ 1 µM |  |  | 8 to 32 mg/L |  | > 32 mg/L | > 32 mg/L
CC(C)(N)C(=O)N1CCN(C(=O)Nc2ccn(-c3ccc(CCN4CCC5(CC4)CC(N)C5)cc3)c(=O)n2)CC1 [Compound 91] | < 0.5 µM | ≥ 1 µM |  | < 8 mg/L |  | < 8 mg/L | 
CC(C)(N)C(=O)N1CCN(C(=O)Nc2ccn(-c3ccc(CCN4CCC5CC5(N)C4)cc3)c(=O)n2)CC1 (stereo not drawn) [Compound 93] | < 0.5 µM | ≥ 1 µM | > 32 mg/L | < 8 mg/L | < 8 mg/L | < 8 mg/L | 
